In PubChem BioAssay (NCI):
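How tested: cells in 96-well plates exposed to compound for 48 hours at five concentrations. TGI is the concentration that stops growth completely.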

Key:
Assay in all cases: NCI-60 cell line screen, 48 h
NCI-H23 lung = tested on: NCI-H23 lung
SN12C renal = tested on: SN12C renal
K-562 leukemia = tested on: K-562 leukemia
NCI-H226 lung = tested on: NCI-H226 lung
SR leukemia = tested on: SR leukemia
RPMI-8226 leukemia = tested on: RPMI-8226 leukemia
UACC-62 melanoma = tested on: UACC-62 melanoma
SK-MEL-28 melanoma = tested on: SK-MEL-28 melanoma
OVCAR-3 ovarian = tested on: OVCAR-3 ovarian
RXF 393 renal = tested on: RXF 393 renal
MALME-3M melanoma = tested on: MALME-3M melanoma
SF-295 CNS = tested on: SF-295 CNS
OVCAR-8 ovarian = tested on: OVCAR-8 ovarian
HOP-92 NSCLC = tested on: HOP-92 NSCLC
SF-268 CNS = tested on: SF-268 CNS
EKVX NSCLC = tested on: EKVX NSCLC
KM20L2 colon = tested on: KM20L2 colon
DMS 114 small cell lung = tested on: DMS 114 small cell lung
M19-MEL melanoma = tested on: M19-MEL melanoma
DMS 273 small cell lung = tested on: DMS 273 small cell lung

| SMILES | TGI (NCI-H23 lung) [µM] | TGI (SN12C renal) [µM] | TGI (K-562 leukemia) [µM] | TGI (NCI-H226 lung) [µM] | TGI (SR leukemia) [µM] | TGI (RPMI-8226 leukemia) [µM] | TGI (UACC-62 melanoma) [µM] | TGI (SK-MEL-28 melanoma) [µM] | TGI (OVCAR-3 ovarian) [µM] | TGI (RXF 393 renal) [µM] | TGI (MALME-3M melanoma) [µM] | TGI (SF-295 CNS) [µM] | TGI (OVCAR-8 ovarian) [µM] | TGI (HOP-92 NSCLC) [µM] | TGI (SF-268 CNS) [µM] | TGI (EKVX NSCLC) [µM] | TGI (KM20L2 colon) [µM] | TGI (DMS 114 small cell lung) [µM] | TGI (M19-MEL melanoma) [µM] | TGI (DMS 273 small cell lung) [µM] |
| --- | --- | --- | --- | --- | --- | --- | --- | --- | --- | --- | --- | --- | --- | --- | --- | --- | --- | --- | --- | --- |
| O=C(NCCN(CCNC(=O)c1cccc(=O)n1O)CCNC(=O)c1cccc(=O)n1O)c1cccc(=O)n1O | > 100 | > 100 | > 100 | > 100 | > 100 | > 100 | > 100 | > 100 | > 100 | > 100 | > 100 | > 100 | > 100 | > 100 | > 100 |  |  |  |  |  |
| N#CCCN(CCC#N)c1ccc(/C=C(/NC(=O)Nc2ccccc2Cl)NC(=O)c2cc([N+](=O)[O-])ccc2Cl)cc1 |  | > 100 | > 100 | > 100 | > 100 | > 100 | > 100 | > 100 | > 100 | > 100 | > 100 | > 100 | > 100 | > 100 | > 100 | > 100 | > 100 | > 100 | > 100 | > 100 |
| COc1ccc(N[C@@H]2c3cc4c(cc3C(c3cc(OC)c(O)c(OC)c3)[C@H]3C(=O)OCC32)OCO4)cc1OC (some centres undefined) | 1.92 | > 72.9 | > 100 |  |  | > 31.7 | > 39.2 | > 100 | > 28.4 | > 26.9 | > 40.7 |  | > 100 | > 100 | > 56.7 | > 100 | > 100 | > 21.9 | > 100 | > 100 |
| CCCCCC(/C=C/c1ncccc1OCCCCCC(=O)O)=N\NC1=NCCN1 |  | > 100 | > 100 | > 100 | > 100 | > 100 | > 100 | > 100 | > 100 | > 100 | > 100 | > 100 | > 100 | > 100 | > 100 | > 100 | > 100 | > 100 | > 100 | > 100 |
| CN(C(=O)c1ccccc1)c1ccc2c(c1)C(=O)c1ccccc1C2=O | > 100 | > 100 | > 100 | > 100 | > 100 | > 100 | > 100 | > 100 | > 100 | > 100 | > 100 | > 100 | > 100 | > 100 | > 100 | > 100 | > 100 | > 100 | > 100 | > 100 |
| S=C1Cc2c(-c3ccccc3)cc(-c3ccc(Cl)cc3)nc2-c2ccccc2N1 | 19.8 | 5.26 |  | > 31.9 | > 100 | > 100 | > 20.7 | > 31.9 | 9.9 | 11.2 | 13 | 18.9 | 4.64 | 3.53 | 6.8 | > 27.1 |  |  |  |  |
| O=S(=O)(CF)OCCCCOS(=O)(=O)CF | > 100 | > 100 | > 100 | > 100 |  | > 100 | > 100 | > 100 | > 100 |  | > 100 | > 100 | > 100 | 82.6 | > 100 | > 100 | > 100 | > 100 | > 100 | > 100 |
| C[Si](C)(C)/C=C/CN1C(=O)CCC1=O | > 100 | > 100 | > 100 |  | > 100 | > 100 | > 100 | > 100 | > 100 |  | > 100 |  |  | > 100 | > 100 | > 100 | > 100 | > 100 | > 100 | > 100 |
